Data as given in article PMC2453235, “Identification and Rational Redesign of Peptide Ligands to CRIP1, A Novel Biomarker for Cancers” (PLoS Computational Biology, 2008).
Where a SMILES comes first, the peptide text is derived from it. Bridges are numbered along the chain shown (N, C = ends). Where no end group is shown, it is not given here. The star is where a group is joined. 5FAM = O=C1OC2(c3ccc(O)cc3Oc3cc(O)ccc32)c2ccc(C(=O)*)cc21

T1: CRIP1 (Homo sapiens, UniProt P50238)
T1 construct: enterokinase cleavage site and vector linker residues (N); made in house; host or cells: E. coli (pHAT10-CRIP1, IPTG induction)
T1 sequence (P50238 1-77): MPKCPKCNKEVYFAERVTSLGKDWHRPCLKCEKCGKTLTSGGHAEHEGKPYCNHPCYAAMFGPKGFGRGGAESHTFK

T2: Cysteine-rich intestinal protein 1 (CRIP1), purified protein coated on plates for the peptide binding assays (human, UniProt P50238 1-77)
T2 construct: Cysteine-rich intestinal protein 1 (CRIP1), human; coding region of the cDNA, 77 amino acids; also called CRIP1 protein; source: bacteria (pHAT10-CRIP1, IPTG induced), purified (TALON CellThru resin)
T2 sequence (looked up): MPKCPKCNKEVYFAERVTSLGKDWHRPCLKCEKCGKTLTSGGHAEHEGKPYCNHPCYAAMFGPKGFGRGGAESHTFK


Legend:
CRIP1 [1] = biological target: T1, CRIP1; test: ELISA of individual phage clones binding to immobilized CRIP1; conditions: purified chimeric CRIP1 not reacted with enterokinase
Description: To select clones for further analysis, we used ELISA to determine the relative binding affinities of selected individual phage clones to purified CRIP1 (see Methods and Figure S3). For these studies the purified chimeric CRIP1 was not reacted with enterokinase.
Supplementary file pcbi.1000138.s003.tif: Figure S3 Relative estimates of peptide affinity for CRIP1. Phage binding against immobilized CRIP-1. (0.38 MB TIF) Click here for additional data file.

CRIP1 [2] = biological target: T1, CRIP1; test: Phage display panning (Ph.D.-C7C library), frequency of enriched sequences; assay type: binding; conditions: 4 rounds of panning against enterokinase-truncated CRIP1, 29 phage inserts sequenced
Method: In order to generate CRIP1 protein that was as similar as possible to endogenous CRIP1, enterokinase cleavage was performed on purified CRIP1. Uncleaved contaminating HIS-tagged CRIP1 as well as HIS-tagged peptides were removed by re-running the digest over the CellThru resin and retaining the flow thru. […] After four rounds of positive selection against enterokinase-truncated CRIP1, 29 phage DNA inserts were sequenced using a 96 gIII primer (5′-^HOCCC TCA TAG TTA GCG TAA CG-3′). Sequencing verified that 18 of the 29 phagotopes were from the cysteine-constrained phage library, Table 1. Many of the peptide sequences contained similar motifs and six sequences occurred in more than one phagotope. The peptides A1 and C5 were identified four times, C1 three times, and A9, B1, and B5 twice. However, even accounting for conserved amino acid substitutions, no clear motif could be identified.
CRIP1 was digested with enterokinase (Roche Diagnostics, Inc.) to remove the His tag and then was used as bait for 4 rounds of panning with the Ph.D.-C7C Phage Display Peptide Library (New England Biolabs). The nucleotide sequence of the gene III insert was determined by sequencing the phage, and the amino acid sequence of the insert was deduced from the nucleotide sequence, shown in Table 1.

[3] = biological target: T2, Cysteine-rich intestinal protein 1 …; test: saturation binding of FITC-labelled peptide to protein-coated plates (fluorescence read-out); CRIP1 coated on 96-well plates (100 µg/ml in PBS, overnight 4°C), blocked with 0.5% BSA in TBS; FITC peptide 50 nM to 100 µM, 1 h at 37°C; non-specific binding with 1 mM unlabeled peptide; apparent Kd by non-linear regression; conditions: both partners purified
[4] = biological target: T2, Cysteine-rich intestinal protein 1 …; test: saturation binding of FITC-labelled peptide to protein-coated plates (fluorescence read-out); data not shown; 'similar assays' to the saturation binding of FITC-A1M on coated CRIP1; apparent Kd; conditions: both partners purified
[5] = biological target: T2, Cysteine-rich intestinal protein 1 …; test: competitive binding on protein-coated plates (fluorescence read-out); CRIP1 coated on 96-well plates (100 µg/ml in PBS, overnight 4°C); 10 µM FITC-A1M held constant, unlabeled A1 or A1M 0 to 300 µM, 1 h at 37°C; one binding site model; conditions: both partners purified

Row | Molecule | Frequency (number of phage clones with the sequence) (CRIP1 [2]) | further results
1 | CC(C)C[C@@H]1NC(=O)[C@@H](N)CSSC[C@@H](C(=O)NCC(=O)NCC(=O)NCC(=O)N[C@@H](CO)C(=O)N[C@@H](CCCCN)C(N)=O)NC(=O)[C@H](CO)NC(=O)[C@H](CCCNC(=N)N)NC(=O)[C@H](Cc2c[nH]cn2)NC(=O)[C@H](CC(N)=O)NC(=O)[C@H](CC(=O)O)NC(=O)[C@H](CCCCN)NC1=O [A1] (H-CLKDNHRSCGGGSK-NH2; disulfide 1-9; N-terminus assumed) | – | relative binding affinity of phage clone (CRIP1 [1]): higher relative affinity
2 | CC[C@H](C)[C@@H]1NC(=O)[C@@H]2CCCN2C(=O)[C@H](CC(=O)O)NC(=O)[C@H](Cc2ccc(O)cc2)NC(=O)[C@@H](N)CSSC[C@@H](C(=O)NCC(=O)NCC(=O)NCC(=O)N[C@@H](CO)C(=O)N[C@@H](CCCCNC(=O)c2ccc3c(c2)C(=O)OC32c3ccc(O)cc3Oc3cc(O)ccc32)C(N)=O)NC(=O)[C@H]([C@@H](C)O)NC(=O)[C@H](CCCNC(=N)N)NC(=O)[C@H](Cc2c[nH]c3ccccc23)NC1=O [B5] (H-CYDPIWRTCGGGSK(5FAM)-NH2; disulfide 1-9; N-terminus assumed) | – | relative binding affinity of phage clone (CRIP1 [1]): higher relative affinity
3 | APYNTLA (disulfide (positions not given here)) [A6, C7C phage display peptide APYNTLA] | 1 | –
4 | DHRQGSS (disulfide (positions not given here)) [A5, C7C phage display peptide DHRQGSS] | 1 | –
5 | FSTNMKT (disulfide (positions not given here)) [B3, C7C phage display peptide FSTNMKT] | 1 | –
6 | HANFLHM (disulfide) [C2, C7C phage display peptide HANFLHM] | 1 | –
7 | LPAYSTY (disulfide (positions not given here)) [B9, C7C phage display peptide LPAYSTY] | 1 | –
8 | PLFKGMS (disulfide (positions not given here)) [B7, C7C phage display peptide PLFKGMS] | 1 | –
9 | RDSSAHQ (disulfide (positions not given here)) [B10, C7C phage display peptide RDSSAHQ] | 1 | –
10 | RTTGAQT (disulfide (positions not given here)) [B4, C7C phage display peptide RTTGAQT] | 1 | –
11 | SLNTRSQ (disulfide (positions not given here)) [C9, C7C phage display peptide SLNTRSQ] | 1 | –
12 | SPHIIAS (disulfide (positions not given here)) [A8, C7C phage display peptide SPHIIAS] | 1 | –
13 | SVPINDS (disulfide) [A3, C7C phage display peptide SVPINDS] | 1 | –
14 | TPRQSPI (disulfide) [C5, C7C phage display peptide TPRQSPI] | – | relative binding affinity of phage clone (CRIP1 [1]): lower binding affinity
15 | YDPIWRT (disulfide (positions not given here)) [B2, C7C phage display peptide YDPIWRT] | 1 | –
16 | H-CLDGGGKGCGGGSK-NH2 (disulfide 1-9 (inferred); not fully specified (residue 14); printed as NH_2_-C-L-D-G-G-G-K-G-C-G-G-G-S-K-(FITC)-CONH_2_, also called FITC-A1M; modified A1; source: synthetic peptide (Fmoc chemistry, HPLC purified, cyclised by oxidation in DMSO)) [FITC-cyclic-A1M peptide] | – | Kd [3]: 2.6 µM
17 | H-CLKDNHRSCGGGSK-NH2 (disulfide 1-9 (inferred); not fully specified (residue 14); printed as NH_2_-C-L-K-D-N-H-R-S-C-G-G-G-S-K-(FITC)-CONH_2_, insert of phage clone A1 (C7C library) followed by the phage spacer Gly-Gly-Gly-Ser and a C-terminal Lys for labelling; also called FITC-A1; parent A1 peptide; source: synthetic peptide (Fmoc chemistry, HPLC purified, cyclised by oxidation in DMSO)) [FITC-cyclic-A1 peptide] | – | Kd [4]: 34.4 µM
18 | CYDPIWRTCGGGSK-NH2 (disulfide 1-9 (inferred); not fully specified (residue 14); printed as C-Y-D-P-I-W-R-T-C-G-G-G-S-K-(FITC)-CONH_2_, insert of phage clone B5 (C7C library) followed by the phage spacer Gly-Gly-Gly-Ser and a C-terminal Lys for labelling; also called FITC-B5; source: synthetic peptide (Fmoc chemistry, HPLC purified, cyclised by oxidation in DMSO)) [FITC-cyclic-B5 peptide] | – | Kd [4]: 62.5 µM
19 | CLKDNHRSCGGGSK (disulfide 1-9 (inferred), also called original A1 peptide; source: synthetic peptide) [unlabeled A1 peptide] | – | IC50 [5]: 8.8 µM
20 | CLDGGGKGCGGGSK (disulfide 1-9 (inferred), source: synthetic peptide) [unlabeled A1M peptide] | – | IC50 [5]: 0.32 µM; Ki [5]: 0.067 µM
